In ChEMBL document CHEMBL4725450 (ACS Med Chem Lett, 2020):

Columns and labels:
Cytochrome P450 2C9 = Cytochrome P450 2C9 (Homo sapiens, UniProt P11712); assay: Inhibition of CYP2C9 (unknown origin); format: ADME
[1] = Drug excretion rate in rat urine at 3 mg/kg, po measured up to 4 hrs by HPLC analysis; format: ADME, organism-based; conditions: read-out: Drug excretion
[2] = molecular target: T1, Solute carrier family 22 member 12 (Homo sapiens, UniProt Q96S37); assay: Inhibition of URAT1 in human RPTEC assessed as inhibition of [14C]uric acid uptake preincubated for 15 mins followed by [14C]uric acid addition and incubated under shaking condition for 2 hrs by scintillation counter method; format: tissue-based
T1 sequence (Q96S37 whole entry): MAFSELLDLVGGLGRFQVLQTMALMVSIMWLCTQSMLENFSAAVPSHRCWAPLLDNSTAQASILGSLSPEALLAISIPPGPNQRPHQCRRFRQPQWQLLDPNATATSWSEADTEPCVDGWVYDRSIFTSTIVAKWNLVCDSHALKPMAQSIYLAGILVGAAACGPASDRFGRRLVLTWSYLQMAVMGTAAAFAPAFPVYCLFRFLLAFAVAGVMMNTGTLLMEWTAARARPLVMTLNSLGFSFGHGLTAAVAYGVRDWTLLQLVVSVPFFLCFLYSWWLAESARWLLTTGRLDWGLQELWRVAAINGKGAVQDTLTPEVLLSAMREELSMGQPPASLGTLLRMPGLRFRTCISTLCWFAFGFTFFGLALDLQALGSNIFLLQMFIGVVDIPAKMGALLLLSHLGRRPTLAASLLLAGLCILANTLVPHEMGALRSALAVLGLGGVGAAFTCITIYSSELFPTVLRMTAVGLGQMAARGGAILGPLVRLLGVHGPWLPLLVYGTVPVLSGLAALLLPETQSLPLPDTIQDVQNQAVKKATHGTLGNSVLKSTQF

[3] = test system: mitochondrial respiration; assay: Hepatotoxicity in rat liver mitochondria assessed as inhibition of mitochondrial respiration by measuring mitochondrial respiratory control ratio of oxygen consumption in presence of substrate and ADP to rate after complete conversion of ADP to ATP by Clark-type oxygen electrode method; format: toxicity
[4] = molecular target: T1, Solute carrier family 22 member 12; assay: Inhibition of URAT1 in human RPTEC assessed as inhibition of [14C]uric acid uptake at 10 uM preincubated for 15 mins followed by [14C]uric acid addition and incubated under shaking condition for 2 hrs by scintillation counter method; format: tissue-based
[5] = molecular target: T1, Solute carrier family 22 member 12; assay: Inhibition of human URAT1 expressed in Xenopus laevis oocytes mediated [14C]uric acid uptake at 0.1 uM measured after 60 mins by liquid scintillation counter method relative to control; format: cell-based; conditions: 1 h
[6] = Cmax in rat at 3 mg/kg, po by HPLC analysis; format: ADME, organism-based; parameters: route oral, dose 3 mg/kg; conditions: in vivo
[7] = test system: mitochondrial respiration; assay: Hepatotoxicity in rat liver mitochondria assessed as inhibition of mitochondrial respiration by measuring mitochondrial respiratory control ratio of oxygen consumption in presence of substrate and ADP to rate after complete conversion of ADP to ATP at 100 uM by Clark-type oxygen electrode method; format: toxicity
[8] = Uricosuric effect in Cebus monkey assessed as fractional plasma urate excretion at 30 mg/kg, po measured up to 4 hrs; format: functional; conditions: time hrs <=4
[9] = AUC (0 to 24 hrs) in Cebus monkey at 30 mg/kg, po; format: ADME, organism-based; parameters: route oral, dose 30 mg/kg, time <=24; conditions: in vivo
[10] = Acid dissociation constant, pKa of the compound; format: physicochemical
[11] = Drug excretion in human urine assessed as excretion rate of glucuronide metabolite of phenols measured for 72 hrs by mass balance test; format: ADME, tissue-based
[12] = molecular target: T1, Solute carrier family 22 member 12; assay: Inhibition of human URAT1 expressed in Xenopus laevis oocytes assessed as inhibition of [14C]uric acid uptake measured after 60 mins by liquid scintillation counter method
[13] = Uricosuric effect in Cebus monkey assessed as fractional plasma urate excretion at 5 mg/kg, po measured up to 4 hrs; format: functional; conditions: time hrs <=4
[14] = AUC (0 to infinity) in rat at 0.3 mg/kg, iv; format: ADME, organism-based; parameters: time infinity, route intravenous, dose 0.3 mg/kg; conditions: in vivo
[15] = Cmax in rat at 0.3 mg/kg, iv; format: ADME, organism-based; parameters: route intravenous, dose 0.3 mg/kg; conditions: in vivo
[16] = Drug excretion in human urine assessed as excretion rate of sulfate metabolite of phenols measured for 72 hrs by mass balance test; format: ADME
[17] = AUC (0 to infinity) in rat at 0.3 mg/kg, po; format: ADME, organism-based; parameters: time infinity, route oral, dose 0.3 mg/kg; conditions: in vivo
[18] = Cmax in rat at 0.3 mg/kg, po; format: ADME, organism-based; parameters: route oral, dose 0.3 mg/kg; conditions: in vivo
[19] = AUC (0 to 24 hrs) in Cebus monkey at 5 mg/kg, po; format: ADME, organism-based; parameters: route oral, dose 5 mg/kg, time <=24; conditions: in vivo
[20] = Oral bioavailability in rat at 0.3 mg/kg; format: ADME, organism-based; conditions: in vivo

Cytochrome P450 2C9, sequence (P11712 whole entry): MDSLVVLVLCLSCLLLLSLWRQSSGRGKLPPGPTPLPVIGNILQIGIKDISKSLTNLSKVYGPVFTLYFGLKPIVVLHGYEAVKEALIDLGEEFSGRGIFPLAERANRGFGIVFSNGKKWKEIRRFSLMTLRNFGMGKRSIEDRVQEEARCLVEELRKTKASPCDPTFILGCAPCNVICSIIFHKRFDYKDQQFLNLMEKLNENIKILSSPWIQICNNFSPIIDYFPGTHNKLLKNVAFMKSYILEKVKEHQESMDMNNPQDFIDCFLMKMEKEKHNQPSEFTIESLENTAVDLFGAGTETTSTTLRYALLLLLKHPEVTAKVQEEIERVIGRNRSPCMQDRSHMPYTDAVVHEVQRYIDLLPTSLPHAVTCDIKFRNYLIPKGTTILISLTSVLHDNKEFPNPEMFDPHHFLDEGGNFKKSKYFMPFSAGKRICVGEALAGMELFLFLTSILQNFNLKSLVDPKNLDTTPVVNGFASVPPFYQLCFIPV

Compound	dose excreted at 4 h [1] [%]	IC50 [2] [µM]	inhibition at 10 µM [4] [%]	Cmax [6] [ng/mL]	IC50 [3] [µM]	inhibition at 100 µM [7] [%]	other results
N#Cc1cc(C(=O)N2CSc3ccccc32)cc(C(F)(F)F)c1O	0.1	13.1	49	3150	55		inhibition at 0.1 µM [5]: 71%
N#Cc1cc(C(=O)N2CCc3ccccc32)cc(Cl)c1O		14.7	38.2		31		
O=C(c1cc(Cl)c(O)c(C(F)(F)F)c1)N1CS(=O)(=O)c2ccccc21	0.1	2.6		6410	18		
CC(C)(C)c1cc(C(=O)N2CCc3ccccc32)cc(C#N)c1O		31.6	32.4		6.6		
N#Cc1cc(C(=O)N2CCc3ccccc32)cc(C#N)c1O		83.9	26.3			47	
COc1cc(C(=O)N2CS(=O)(=O)c3ccccc32)cc(C(F)(F)F)c1O	0	17.8		3990		47	
N#Cc1cc(C(=O)N2CCc3ccccc32)ccc1O	5.9	2.5	67.5	890		43	
Cc1c(C)n(C(=O)c2ccc(O)c(C#N)c2)c2ccccc12		10.8	52.1		3.6		
COc1cc(C(=O)N2CCc3ccccc32)cc(C#N)c1O		> 100	21.7			-10	
CSc1cc(C(=O)N2CCc3ccccc32)cc(C#N)c1O		> 100	24.2		40		
N#Cc1cc(C(=O)N2CCc3ccccc32)cc(C2CC2)c1O	0.35	8.8	67.8	1360	24		
N#Cc1cc(C(=O)N2CCc3ccccc32)cc(I)c1O	0.02	5.3	65.1	5950	53		
N#Cc1cc(C(=O)N2CCc3ccccc32)cc(C(F)(F)F)c1O		> 100	30			40	
CCc1oc2ccccc2c1C(=O)c1cc(Br)c(O)c(Br)c1 [BENZBROMARONE]	0		51	4420	3.1		Activity [8]: 11.5%; AUC(0-t) [9]: 95200 ng·h/mL; inhibition at 0.1 µM [5]: 37%; pKa [10]: 5.17
O=c1[nH]c(=O)c2[nH]c(=O)[nH]c2[nH]1 [URIC ACID]							pKa [10]: 5.75

Second part, led by results:

dose excreted at 4 h [1] [%]	IC50 [2] [µM]	inhibition at 10 µM [4] [%]	Cmax [6] [ng/mL]	Compound	IC50 [3] [µM]	inhibition at 100 µM [7] [%]	other results
0.6	19.2	42	3810	N#Cc1cc(C(=O)N2CS(=O)(=O)c3ccccc32)cc(C2CC2)c1O	59		IC50 (Cytochrome P450 2C9): 57 µM; inhibition at 0.1 µM [5]: 30%
12.4	3.2		1580	C#Cc1cc(C(=O)N2CS(=O)(=O)c3ccccc32)cc(C#N)c1O		13	
	> 100			N#Cc1cc(C(=O)N2CS(=O)(=O)c3ccccc32)cc(C(F)(F)F)c1O		12	
9.4	7.1	57	1080	CSc1cc(C(=O)N2CS(=O)(=O)c3ccccc32)cc(C#N)c1O		21	inhibition at 0.1 µM [5]: 44%
0.2	5.7		4640	CSc1cc(C(=O)N2CS(=O)(=O)c3ccccc32)cc(Cl)c1O	59		
4.3	33.9		7700	O=C(c1cc(F)c(O)c(Cl)c1)N1CS(=O)(=O)c2ccccc21	63		
0.1	83.3		4460	CC(C)c1cc(C(=O)N2CS(=O)(=O)c3ccccc32)cc(C#N)c1O	12		
23	> 100	25	1350	N#Cc1cc(C(=O)N2CS(=O)(=O)c3ccccc32)cc(Cl)c1O		20	inhibition at 0.1 µM [5]: 29%
1.7	> 100	32	4240	CCc1cc(C(=O)N2CS(=O)(=O)c3ccccc32)cc(C#N)c1O	37		inhibition at 0.1 µM [5]: 36%
0.1	4.3		1060	COc1cc(C(=O)N2CS(=O)(=O)c3ccccc32)cc(Cl)c1O		49	
1.1	6.8	81	9140	O=C(c1cc(Cl)c(O)c(Cl)c1)N1CS(=O)(=O)c2ccccc21 [DOTINURAD]	27		Drug excretion [11]: 44.3%; IC50 [12]: 37.2 nM; Activity [13]: 16.5%; AUC(0-inf) [14]: 6620 ng·h/mL; Cmax [15]: 2400 ng/mL; Drug excretion [16]: 20%; AUC(0-inf) [17]: 5740 ng·h/mL; Cmax [18]: 1090 ng/mL; inhibition at 0.1 µM [5]: 78%; AUC(0-t) [19]: 109 µg·h/mL; bioavailability [20]: 86.8%
